Results published in ChEMBL document CHEMBL2029259, “Design, synthesis, and biological evaluation of novel conformationally constrained inhibitors targeting epidermal growth factor receptor threonine⁷⁹⁰ → methionine⁷⁹⁰ mutant” (J Med Chem, 2012).

Assays:
[1] = target: T1, Epidermal growth factor receptor (Homo sapiens, UniProt P00533); experiment: Inhibition of EGFR after 1.5 hr by FRET assay
[2] = target: T2, Epidermal growth factor receptor (Homo sapiens, UniProt P00533, T790M); experiment: Inhibition of EGFR T790M mutant after 1.5 hr by FRET assay; assay type: protein assay
T2 sequence (P00533 25-1210 T790M limits assumed): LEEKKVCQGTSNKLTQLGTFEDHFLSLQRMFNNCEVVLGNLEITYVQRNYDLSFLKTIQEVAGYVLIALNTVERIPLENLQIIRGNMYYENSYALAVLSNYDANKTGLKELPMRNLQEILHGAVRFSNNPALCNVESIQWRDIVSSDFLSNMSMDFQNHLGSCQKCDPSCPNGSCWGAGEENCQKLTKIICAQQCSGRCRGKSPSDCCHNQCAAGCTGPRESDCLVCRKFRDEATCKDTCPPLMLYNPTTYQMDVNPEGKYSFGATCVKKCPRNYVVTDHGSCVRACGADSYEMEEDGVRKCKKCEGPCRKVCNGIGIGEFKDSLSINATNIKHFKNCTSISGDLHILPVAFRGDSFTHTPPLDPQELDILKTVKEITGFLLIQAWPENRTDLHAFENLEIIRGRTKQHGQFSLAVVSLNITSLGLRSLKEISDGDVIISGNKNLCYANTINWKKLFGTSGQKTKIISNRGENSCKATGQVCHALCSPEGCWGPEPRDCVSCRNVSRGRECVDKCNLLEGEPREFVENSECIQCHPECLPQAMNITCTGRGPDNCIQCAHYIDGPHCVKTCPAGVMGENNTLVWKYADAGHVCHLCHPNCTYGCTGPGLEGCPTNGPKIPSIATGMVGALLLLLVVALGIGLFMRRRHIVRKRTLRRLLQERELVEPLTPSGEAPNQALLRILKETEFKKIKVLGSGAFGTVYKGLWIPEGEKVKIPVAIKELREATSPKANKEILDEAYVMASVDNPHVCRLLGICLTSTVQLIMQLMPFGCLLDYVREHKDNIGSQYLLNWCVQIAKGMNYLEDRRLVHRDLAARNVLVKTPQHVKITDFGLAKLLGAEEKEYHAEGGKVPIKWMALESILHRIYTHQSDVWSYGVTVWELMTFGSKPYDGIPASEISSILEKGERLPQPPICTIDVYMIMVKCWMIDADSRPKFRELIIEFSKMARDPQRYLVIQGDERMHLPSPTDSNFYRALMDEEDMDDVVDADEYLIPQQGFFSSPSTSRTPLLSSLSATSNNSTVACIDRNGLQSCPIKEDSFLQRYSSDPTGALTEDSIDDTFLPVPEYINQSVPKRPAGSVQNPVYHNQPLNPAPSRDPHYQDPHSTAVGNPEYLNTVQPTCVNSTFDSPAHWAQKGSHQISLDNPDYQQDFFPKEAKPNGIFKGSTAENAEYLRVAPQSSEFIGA

[3] = target: T3, Epidermal growth factor receptor (Homo sapiens, UniProt P00533, L858R); experiment: Inhibition of EGFR L858R mutant after 1.5 hr by FRET assay; assay type: protein assay
T3 sequence (P00533 25-1210 L858R limits assumed): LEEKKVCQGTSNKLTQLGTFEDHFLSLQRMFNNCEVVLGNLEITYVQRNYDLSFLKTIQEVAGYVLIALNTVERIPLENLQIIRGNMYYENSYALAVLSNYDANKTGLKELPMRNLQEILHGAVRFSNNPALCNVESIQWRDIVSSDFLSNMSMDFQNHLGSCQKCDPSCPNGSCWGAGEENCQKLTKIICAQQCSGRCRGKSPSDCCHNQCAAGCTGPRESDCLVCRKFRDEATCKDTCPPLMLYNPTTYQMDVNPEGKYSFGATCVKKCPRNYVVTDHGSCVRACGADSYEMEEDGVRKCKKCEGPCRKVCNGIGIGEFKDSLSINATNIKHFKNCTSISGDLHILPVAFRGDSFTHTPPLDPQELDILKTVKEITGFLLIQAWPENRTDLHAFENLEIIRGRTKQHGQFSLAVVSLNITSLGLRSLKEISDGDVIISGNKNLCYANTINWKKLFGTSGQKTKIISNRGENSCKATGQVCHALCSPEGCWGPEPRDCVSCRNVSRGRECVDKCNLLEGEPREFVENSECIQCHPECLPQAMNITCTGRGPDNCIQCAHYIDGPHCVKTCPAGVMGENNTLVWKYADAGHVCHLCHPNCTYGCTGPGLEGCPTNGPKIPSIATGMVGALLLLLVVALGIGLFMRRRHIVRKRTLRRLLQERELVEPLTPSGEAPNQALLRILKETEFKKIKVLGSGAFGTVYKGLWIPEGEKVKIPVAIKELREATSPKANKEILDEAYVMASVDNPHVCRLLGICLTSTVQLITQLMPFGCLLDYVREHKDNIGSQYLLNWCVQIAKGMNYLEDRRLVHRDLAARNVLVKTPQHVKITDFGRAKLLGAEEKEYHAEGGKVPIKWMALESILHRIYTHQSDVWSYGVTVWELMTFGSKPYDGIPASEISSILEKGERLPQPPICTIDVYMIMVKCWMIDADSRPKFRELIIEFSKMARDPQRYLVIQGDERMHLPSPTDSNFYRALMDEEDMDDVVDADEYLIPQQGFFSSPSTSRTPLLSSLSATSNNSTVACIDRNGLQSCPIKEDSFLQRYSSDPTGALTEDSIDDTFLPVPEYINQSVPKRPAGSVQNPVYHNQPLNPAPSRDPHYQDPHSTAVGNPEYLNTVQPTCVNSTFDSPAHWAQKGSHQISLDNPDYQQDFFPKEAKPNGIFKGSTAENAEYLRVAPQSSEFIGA

[4] = target: T4, Epidermal growth factor receptor (Homo sapiens, UniProt P00533, L861Q); experiment: Inhibition of EGFR L861Q mutant after 1.5 hr by FRET assay; assay type: protein assay
[5] = target: T5, Epidermal growth factor receptor (Homo sapiens, UniProt P00533, L858R/T790M); experiment: Inhibition of EGFR L858R/T790M mutant after 1.5 hr by FRET assay; assay type: protein assay
T5 sequence (P00533 25-1210 T790M/L858R limits assumed): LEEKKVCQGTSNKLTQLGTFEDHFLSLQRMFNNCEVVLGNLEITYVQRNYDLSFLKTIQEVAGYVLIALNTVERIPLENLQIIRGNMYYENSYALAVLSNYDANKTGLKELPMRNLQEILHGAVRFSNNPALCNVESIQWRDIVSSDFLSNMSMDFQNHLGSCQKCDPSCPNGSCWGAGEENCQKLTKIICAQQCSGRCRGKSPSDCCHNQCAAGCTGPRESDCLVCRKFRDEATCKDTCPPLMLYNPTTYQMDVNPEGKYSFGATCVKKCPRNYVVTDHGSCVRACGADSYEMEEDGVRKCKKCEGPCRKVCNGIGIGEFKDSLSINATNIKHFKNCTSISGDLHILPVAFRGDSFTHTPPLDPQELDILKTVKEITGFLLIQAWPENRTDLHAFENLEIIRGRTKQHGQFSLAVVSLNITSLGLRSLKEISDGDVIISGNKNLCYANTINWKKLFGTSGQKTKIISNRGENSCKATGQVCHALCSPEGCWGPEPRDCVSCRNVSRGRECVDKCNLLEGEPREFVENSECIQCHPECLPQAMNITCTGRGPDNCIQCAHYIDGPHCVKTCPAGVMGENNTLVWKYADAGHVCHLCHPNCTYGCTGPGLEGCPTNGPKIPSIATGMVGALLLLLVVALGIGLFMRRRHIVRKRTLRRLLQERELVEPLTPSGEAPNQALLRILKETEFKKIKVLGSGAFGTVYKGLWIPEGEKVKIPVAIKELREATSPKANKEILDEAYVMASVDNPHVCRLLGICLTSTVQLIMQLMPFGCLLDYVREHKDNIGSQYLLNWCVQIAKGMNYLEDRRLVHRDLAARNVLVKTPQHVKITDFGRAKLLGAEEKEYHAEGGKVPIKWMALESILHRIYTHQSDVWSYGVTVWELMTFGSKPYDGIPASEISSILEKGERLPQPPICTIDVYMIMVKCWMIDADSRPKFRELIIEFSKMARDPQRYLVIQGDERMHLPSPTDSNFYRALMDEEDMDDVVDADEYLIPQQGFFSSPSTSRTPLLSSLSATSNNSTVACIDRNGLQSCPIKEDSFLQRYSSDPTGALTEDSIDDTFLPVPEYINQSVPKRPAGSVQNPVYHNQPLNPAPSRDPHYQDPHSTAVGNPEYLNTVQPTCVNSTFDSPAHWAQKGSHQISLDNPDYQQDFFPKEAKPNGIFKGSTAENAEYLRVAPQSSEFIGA

[6] = system: A-431; experiment: Antiproliferative activity against human A431 cells overexpressing EGFR after 72 hrs by MTS assay; conditions: A-431, 72 h
[7] = system: A549; experiment: Antiproliferative activity against human A549 cells expressing wild type EGFR coexpressing k-Ras mutant after 72 hrs by MTS assay; conditions: A549, 72 h
[8] = Antiproliferative activity against human HL7702 cells expressing wilt type EGFR after 72 hrs by MTS assay; conditions: L02, 72 h
[9] = cells; conditions: Homo sapiens, HCC827, 72 h
[10] = system: NCI-H1975; experiment: cells; conditions: Homo sapiens, NCI-H1975, 72 h
[11] = target: T1, Epidermal growth factor receptor; experiment: Binding affinity to EGFR
[12] = target: T2, Epidermal growth factor receptor; experiment: Binding affinity to EGFR T790M mutant
[13] = target: T3, Epidermal growth factor receptor; experiment: Binding affinity to EGFR L858R mutant
[14] = target: T4, Epidermal growth factor receptor; experiment: Binding affinity to EGFR L861Q mutant
[15] = target: T5, Epidermal growth factor receptor; experiment: Binding affinity to EGFR L858R/T790M mutant

T1 sequence (P00533 whole entry): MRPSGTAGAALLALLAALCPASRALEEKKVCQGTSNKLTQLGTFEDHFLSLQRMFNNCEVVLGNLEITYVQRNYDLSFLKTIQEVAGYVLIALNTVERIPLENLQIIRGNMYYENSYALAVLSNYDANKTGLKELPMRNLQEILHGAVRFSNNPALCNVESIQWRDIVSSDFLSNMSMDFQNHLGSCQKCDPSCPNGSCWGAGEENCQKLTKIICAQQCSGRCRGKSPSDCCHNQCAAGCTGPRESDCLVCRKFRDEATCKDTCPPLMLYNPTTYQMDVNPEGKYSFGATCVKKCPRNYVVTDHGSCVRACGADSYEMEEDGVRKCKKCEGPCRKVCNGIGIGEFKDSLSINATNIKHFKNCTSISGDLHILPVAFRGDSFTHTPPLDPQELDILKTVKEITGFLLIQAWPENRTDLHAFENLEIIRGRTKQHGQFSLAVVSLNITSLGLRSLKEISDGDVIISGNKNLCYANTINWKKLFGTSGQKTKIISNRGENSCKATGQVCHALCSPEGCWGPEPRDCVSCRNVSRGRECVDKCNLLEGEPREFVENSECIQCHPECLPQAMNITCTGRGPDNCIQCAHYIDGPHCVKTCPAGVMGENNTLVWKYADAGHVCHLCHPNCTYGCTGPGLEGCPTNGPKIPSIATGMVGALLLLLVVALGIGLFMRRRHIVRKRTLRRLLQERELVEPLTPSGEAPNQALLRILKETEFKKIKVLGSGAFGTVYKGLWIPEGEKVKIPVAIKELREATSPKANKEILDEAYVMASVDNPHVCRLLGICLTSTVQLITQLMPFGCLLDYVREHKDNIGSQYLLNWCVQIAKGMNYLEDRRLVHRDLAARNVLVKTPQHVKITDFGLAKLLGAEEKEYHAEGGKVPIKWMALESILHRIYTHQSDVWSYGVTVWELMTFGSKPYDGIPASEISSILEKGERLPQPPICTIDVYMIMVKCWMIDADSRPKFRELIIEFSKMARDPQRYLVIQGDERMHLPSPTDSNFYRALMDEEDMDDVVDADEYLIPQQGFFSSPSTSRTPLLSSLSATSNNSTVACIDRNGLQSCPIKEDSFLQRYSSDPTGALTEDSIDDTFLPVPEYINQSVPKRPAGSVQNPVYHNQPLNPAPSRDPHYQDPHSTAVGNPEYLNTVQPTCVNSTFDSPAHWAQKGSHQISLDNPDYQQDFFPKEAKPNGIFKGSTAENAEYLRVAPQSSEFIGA

IC50 [1] [nM] | IC50 [2] [nM] | IC50 [3] [nM] | IC50 [4] [nM] | IC50 [5] [nM] | IC50 [6] [nM] | IC50 [7] [µM] | IC50 [9] [nM] | IC50 [10] [nM] | Kd [11] [nM] | Kd [12] [nM] | Kd [13] [nM] | Kd [14] [nM] | Kd [15] [nM] | SMILES | IC50 [8] [µM]
1.16 | 6.56 | 1.08 | 1.21 | 3.14 | 750 | 15.9 | 18 | 47 | – | – | – | – | – | C=CC(=O)Nc1cccc(N2C(=O)N(C)Cc3cnc(Nc4ccc(N5CCN(C)CC5)cc4OC)nc32)c1 | > 10
1.47 | 11 | 2.11 | 2.75 | 5.17 | 2150 | > 20 | 73 | 720 | – | – | – | – | – | C=CC(=O)Nc1cccc(N2C(=O)N(C)Cc3cnc(Nc4ccc(N5CCCN(C)CC5)cc4OC)nc32)c1 | > 10
1.95 | 9.37 | 1.21 | 1.31 | 4.18 | 990 | 11.9 | 31 | 200 | – | – | – | – | – | C=CC(=O)Nc1cccc(N2C(=O)N(C)Cc3cnc(Nc4ccc(N5CCN(C)CC5)cc4C)nc32)c1 | > 10
0.38 | – | 0.45 | 0.46 | 4.42 | 820 | 8.42 | 4 | 58 | – | – | – | – | – | C=CC(=O)Nc1cccc(N2C(=O)N(C(C)C)Cc3cnc(Nc4ccc(N5CCN(C)CC5)cc4OC)nc32)c1 | > 10
29.5 | 95.7 | 10.4 | 15.4 | 36.4 | 5060 | 12 | 170 | 610 | – | – | – | – | – | C=CC(=O)Nc1cccc(N2C(=O)N(C)Cc3cnc(Nc4ccc(N5CCCCC5)cc4OC)nc32)c1 | > 10
4.41 | 12.7 | 2.68 | 3.02 | 7.1 | 1080 | 10.3 | 14 | 103 | – | – | – | – | – | C=CC(=O)Nc1cccc(N2C(=O)N(C)Cc3cnc(Nc4ccc(N5CCN(C)CC5)cc4OCC)nc32)c1 | > 10
8.81 | 39.9 | 13.7 | 13.5 | 36.3 | 2110 | 11.7 | 27 | 230 | – | – | – | – | – | C=CC(=O)Nc1cccc(N2C(=O)N(C)Cc3cnc(Nc4ccc(N5CCN(C)CC5)cc4OC(C)C)nc32)c1 | > 10
> 1000 | > 1000 | > 1000 | > 1000 | > 1000 | > 10000 | 11.1 | 5010 | 8460 | – | – | – | – | – | C=CC(=O)Nc1cccc(N2C(=O)N(C)Cc3cnc(Nc4ccc(N5CCN(C)CC5)cc4F)nc32)c1 | 7.18

Continued, molecule first:

SMILES | IC50 [1] [nM] | IC50 [2] [nM] | IC50 [3] [nM] | IC50 [4] [nM] | IC50 [5] [nM] | IC50 [6] [nM] | IC50 [7] [µM] | IC50 [9] [nM] | IC50 [10] [nM] | Kd [11] [nM] | Kd [12] [nM] | Kd [13] [nM] | Kd [14] [nM] | Kd [15] [nM] | IC50 [8] [µM]
COc1cc(N2CCN(C)CC2)ccc1Nc1ncc2c(n1)N(c1cccc(N)c1)C(=O)N(C)C2 | > 1000 | > 1000 | > 1000 | > 1000 | > 1000 | > 10000 | 11.2 | 4890 | > 20000 | – | – | – | – | – | > 10
C=CC(=O)Nc1cccc(N2C(=O)N(C)Cc3cnc(Nc4ccccc4)nc32)c1 | 6.95 | 45.7 | 10.9 | 12.1 | 28.3 | 6900 | 18 | 44 | 170 | – | – | – | – | – | > 10
C=CC(=O)Nc1cccc(N2C(=O)N(c3ccc(OCc4ccccc4)cc3)Cc3cnc(Nc4ccc(N5CCN(C)CC5)cc4OC)nc32)c1 | 1.67 | 2.43 | 2.42 | 2.56 | 6.31 | – | 2.47 | – | – | – | – | – | – | – | 2.79
C=CC(=O)Nc1cccc(N2C(=O)N(C)Cc3cnc(Nc4ccc(N5CCN(C)CC5)cc4)nc32)c1 | 0.43 | 1.66 | 0.53 | 0.56 | 1.19 | 550 | 11.3 | 14 | 45 | – | – | – | – | – | 7.56
C=CC(=O)Nc1cccc(Oc2nc(Nc3ccc(N4CCN(C)CC4)cc3OC)ncc2Cl)c1 | – | – | – | – | – | 1390 | 5.31 | 7 | 48 | – | – | – | – | – | 2.73
C=CC(=O)Nc1cccc(N2C(=O)N(C)Cc3cnc(NC)nc32)c1 | 929 | > 1000 | > 1000 | 837 | > 1000 | > 10000 | > 20 | 6920 | 20100 | – | – | – | – | – | > 10
C=CC(=O)Nc1cccc(N2C(=O)N(c3ccc(Oc4ccccc4)cc3)Cc3cnc(Nc4ccc(N5CCN(C)CC5)cc4OC)nc32)c1 | 1.52 | 2.03 | 1.66 | 2.31 | 3.57 | – | 1.77 | – | – | – | – | – | – | – | > 10
C=CC(=O)Nc1cc2c(Nc3ccc(F)c(Cl)c3)ncnc2cc1OCCCN1CCOCC1 [CANERTINIB] | – | – | – | – | – | – | – | 1 | – | – | – | – | – | – | –
C=CC(=O)Nc1cccc(N2C(=O)N(C)Cc3cnc(Nc4ccc(N5CCOCC5)cc4OC)nc32)c1 | 16.4 | 60.3 | 10.3 | 12.7 | 28.9 | > 10000 | 10.5 | 130 | 150 | – | – | – | – | – | > 10
C=CC(=O)Nc1cccc(N2C(=O)N(C)Cc3cnc(Nc4ccc(N5CCC(N(C)C)CC5)cc4OC)nc32)c1 | 3.52 | 9.52 | 2.41 | 2.83 | 5.2 | 1390 | 14.5 | 150 | 530 | – | – | – | – | – | > 10
C=CC(=O)Nc1cccc(N2C(=O)N(C)Cc3cnc(Nc4ccc(N(C)C)cc4OC)nc32)c1 | 4.99 | 24.9 | 4.95 | 6.22 | 11.5 | 5620 | > 20 | 740 | 540 | – | – | – | – | – | > 10
CCC(=O)Nc1cccc(N2C(=O)N(C)Cc3cnc(Nc4ccc(N5CCN(C)CC5)cc4OC)nc32)c1 | > 1000 | > 1000 | > 1000 | > 1000 | > 1000 | > 10000 | > 30 | – | > 20000 | 1400 | 560 | 1600 | 1100 | 850 | > 10
C=CC(=O)Nc1cccc(N2C(=O)N(c3ccc(-c4ccccc4)cc3)Cc3cnc(Nc4ccc(N5CCN(C)CC5)cc4OC)nc32)c1 | 1.41 | 5.24 | 1.67 | 3.43 | 4.64 | – | 2.27 | – | – | – | – | – | – | – | 3.69
